Read-outs that look alike come from different tables or passages of the source.
What was measured:
HIV-1 = HIV-1 replication inhibition in MT4 cells; assay type: cell-based; details: three independent experiments, average ± standard deviation, read-out: HIV-1 EC50
Protocol: (§1) HIV-1 replication was carried out in MT4 cells as previously reported ([Corona et al., 2016a]) using a molecular clone derived from the pNL4-3 ([Thierry et al., 2015]). A total of 120 ng of p24^gag antigen per 10^6 cells, corresponding to a multiplicity of infection (m.o.i.) of 0.3, was used for infection. […] Flow cytometry analysis was performed on a FACSCalibur flow cytometer (BD Biosciences, San Jose, CA, USA), and the results were analyzed using the […] software.

[1] = molecular target: T1, HIV-1 IN-IN subunit exchange (Human immunodeficiency virus type 1 group M subtype B, UniProt P12497); test: HTRF-based IN subunit exchange assay; assay type: binding
T1 construct: Preparation of recombinant full-length IN and LEDGF proteins; made in house; host or cells: E. coli BL21(DE3)
Protocol: (§2) Proteins were expressed in E. coli BL21(DE3). Briefly, His-IN was purified by loading the precipitate of cell lysate onto a Ni-Sepharose column and eluting with a […] imidazole gradient (0–500 mM) in a HEPES buffer (50 mM, pH 7.5) containing NaCl (1 M), CHAPS (7.5 mM), and β-mercaptoethanol (2 mM). FLAG-IN was purified by loading the precipitate of cell lysate onto a phenyl-sepharose and ammonium sulfate gradient (0–800 mM) in a HEPES (pH 7.5, 50 mM) buffer containing NaCl (200 mM), CHAPS (7.5 mM), and β-mercaptoethanol (2 mM). Peak fractions were pooled, loaded onto a heparin column, and eluted with an increasing NaCl gradient (200 mM to 1 M) in a HEPES (pH 7.5, 50 mM) buffer containing CHAPS (7.5 mm) and β-mercaptoethanol (2 mM). Fractions containing integrase were pooled and stored in glycerol (10%) at −80°C.
His and FLAG-tagged INs were mixed in Tris (pH 7.4, 25 mm) buffer containing NaCl (150 mm), MgCl2 (2 mM), Nonidet P-40 (0.1%), and BSA (1 mg/ml). Test compounds were then added to the mixture, and incubation was carried out for 2.5 h at room temperature.

HIV-1 IN-LEDGF binding = molecular target: T2, HIV-1 IN-LEDGF binding (Human immunodeficiency virus type 1 group M subtype B, UniProt P12497); test: biochemical
T2 construct: Preparation of recombinant full-length IN and LEDGF proteins; made in house; host or cells: E. coli BL21(DE3)
Protocol: as §2
Briefly, His-IN was preincubated with different concentrations of a compound in a buffer containing NaCl (150 mm), MgCl2 (2 mM), Nonidet P-40 (0.1%), BSA (1 mg/ml), and Tris (pH 7.4, 25 mm) for 30 min at room temperature. Then, FLAG-LEDGF was added to the reaction mixture, and a mixture of anti-His6-XL665 and anti-FLAG-EuCryptate antibodies was added.

MT4 cells = test: Viability of infected MT4 cells (cytotoxicity); assay type: cell-based; details: no toxicity up to the highest concentration tested
Protocol: as §1

[2] = Viability of infected MT4 cells (cytotoxicity); assay type: cell-based; details: human, MT4 cells infected with HIV-1; infected MT4 cells viability; three independent experiments, average ± standard deviation
Protocol: as §1

[3] = molecular target: T3, HIV-1 IN (LEDGF-independent) (Human immunodeficiency virus type 1 group M subtype B, UniProt P12497); test: biochemical; details: strand-transfer activity with omission of LEDGF/p75; read-out: IC50 IN LEDGF-independent integration
T3 construct: Preparation of recombinant full-length IN and LEDGF proteins; made in house; host or cells: E. coli BL21(DE3)
Protocol: as §2
Briefly, IN (50 nM) was preincubated with increasing concentrations of compounds for 1 h at room temperature in a reaction buffer containing HEPES (20 mM, pH 7.5), DTT (1 mM), glycerol (1%), MgCl2 (20 mM), Brij-35 (0.05%), and bovine serum albumin (BSA) (0.1 mg/ml).

[4] = Human immunodeficiency virus 1, MT4, viral replication in MT4 cells

Row | SMILES | EC50 (HIV-1; [4]) [µM] | EC50 (HIV-1; viral replication in MT4 cells) [µM] | IC50 [1] [µM] | IC50 (HIV-1 IN-LEDGF binding) [µM] | IC50 IN/LEDGF binding (HIV-1 IN-LEDGF binding) | toxicity against MT4 cells (MT4 cells) [µM] | CC50 [2] [µM] | IC50 [3] [µM]
1 | Cc1ccc(-c2csc(N/N=C3\C(=O)Nc4ccc([N+](=O)[O-])cc43)n2)cc1 [10a] | < 20 | 15.8 ± 1.8 | 11.5 ± 1.5 | > 100 | without interfering with the binding of LEDGF | > 100 | > 100 | 35.5 ± 1.5
2 | O=C1Nc2ccc(Cl)cc2/C1=N/Nc1nc(-c2ccc(Cl)c(Cl)c2)cs1 [9b] | < 20 | 13.2 ± 3.7 | > 100 | > 100 |  | > 100 | > 100 | > 100

— paper PMC10328743, “5-Nitro-3-(2-(4-phenylthiazol-2-yl)hydrazineylidene)indolin-2-one derivatives inhibit HIV-1 replication by a multitarget mechanism of action” (Frontiers in Cellular and Infection Microbiology, 2023)
